Source: patent publication US11680885B2, “Method, process, composition and kit for measuring concentration of molecules dissolved in the continuous phase of a colloid” (UNIVERSIDAD TÉCNICA FEDERICO SANTA MARÍA, priority 2017, dated 2023)

Assay: Measurement of concentration of molecules dissolved in the continuous phase of the standard AuNP@MUA colloid (centrifugation, RP-HPLC with UV-visible detection)
Format: physicochemical
Conditions: n=3; for concentration in the control samples, equivalent to the continuous phase of the colloid: control samples: particle-free solution extracted from the colloid, 2.00 μM molecule added; for concentration of molecules dissolved in the continuous phase of the standard AuNP@MUA colloid: test samples, after incorporating 2.00 μM of the molecule into the colloid, centrifuged 24,000×g 15 min, average
Method: In general terms, the concentration of molecules dissolved in a fraction of the particle free colloid is measured. To evaluate this, in a first part the method obtains a test sample and a control sample. The test sample contains molecules dissolved in a colloid, and the control sample contains the same concentration of molecules dissolved in a particle-free solution extracted from the same colloid used to obtain the test sample. […] Subsequently, the samples are exposed to a condition that allows the particles of the test sample to be concentrated. […] Then, a particle-free volume is recovered from the test sample. The fraction recovered is equivalent to the continuous phase of the colloid and includes the effect of the interaction between molecules and particles. Finally, the concentration of molecules dissolved in the continuous phase of the colloid is measured using equation 1:
[formula] where [FC] corresponds to the concentration of molecules dissolved in the continuous phase of a colloid, [ ]0 corresponds to the value of the concentration of molecules used during the sampling steps, @mp corresponds to the empirical value of a parameter proportional to the number of molecules contained in a volume of particle-free test sample, and @mc corresponds to the empirical value of the same parameter proportional to the number of molecules contained in a volume of control sample. The concentration value obtained from this equation is equivalent to the concentration of molecules dissolved in the continuous phase of the colloid. […]
[formula] • where [FC] corresponds to the concentration of molecules dissolved in the continuous phase of a colloid, [ ]0 corresponds to the value of the concentration of molecules used during the sampling steps, @mp corresponds to the empirical value of a parameter proportional to the number of molecules contained in a volume of particle-free test sample obtained in step f), and @mc corresponds to the empirical value of the same parameter, but measured in the control sample obtained in step g).

Structure (SMILES)	concentration in the control samples, equivalent to the continuous phase of the colloid	concentration of molecules dissolved in the continuous phase of the standard AuNP@MUA colloid
CN(C)c1ccc(N=Nc2ccc(S(=O)(=O)[O-])cc2)cc1.[Na+] [methyl orange]	2000 nM	2000 nM
CN(C)c1ccc2nc3ccc(=[N+](C)C)cc-3sc2c1 [methylene blue]	2000 nM	1170 nM
